Consider 11 compounds from US20250186627A1, “RADIOLABELED COMPOUNDS TARGETING THE PROSTATE-SPECIFIC MEMBRANE ANTIGEN” (PROVINCIAL HEALTH SERVICES AUTHORITY, priority 2022, published 2025).

Molecules are shown by their SMILES. *1 amine or outer side, *2 acyl side, *3 side chain or, on linkers, in order; H or OH if unused. Where a SMILES comes first, the peptide text is derived from it. [ ]: non-standard residue; d: D form. The star is where a group is joined. AadUreaLys(Nε) = O=C(O)CCC[C@H](NC(=O)N[C@@H](CCCCN*)C(=O)O)C(=O)O; X4 = O=C(N[C@@H](CCCCN*)C(=O)O)N[C@@H](C[C@@H](F)C(=O)O)C(=O)O; Butanoyl(4-(4-NO2Ph)) = O=C(CCCc1ccc([N+](=O)[O-])cc1)*; DOTA = O=C(O)CN1CCN(CC(=O)O)CCN(CC(=O)*)CCN(CC(=O)O)CC1; EuK = O=C(O)CC[C@H](NC(=O)N[C@@H](CCCCN*)C(=O)O)C(=O)O; Ala(9-anthryl) = N[C@@H](Cc1c2ccccc2cc2ccccc12)C(=O)O; Butanoyl(4-(4-MeO-phenyl)) = COc1ccc(CCCC(=O)*)cc1; X1 = O=C(C1CCC(CN[*:1])CC1)[*:2]

T1 sequence (Q04609 whole entry): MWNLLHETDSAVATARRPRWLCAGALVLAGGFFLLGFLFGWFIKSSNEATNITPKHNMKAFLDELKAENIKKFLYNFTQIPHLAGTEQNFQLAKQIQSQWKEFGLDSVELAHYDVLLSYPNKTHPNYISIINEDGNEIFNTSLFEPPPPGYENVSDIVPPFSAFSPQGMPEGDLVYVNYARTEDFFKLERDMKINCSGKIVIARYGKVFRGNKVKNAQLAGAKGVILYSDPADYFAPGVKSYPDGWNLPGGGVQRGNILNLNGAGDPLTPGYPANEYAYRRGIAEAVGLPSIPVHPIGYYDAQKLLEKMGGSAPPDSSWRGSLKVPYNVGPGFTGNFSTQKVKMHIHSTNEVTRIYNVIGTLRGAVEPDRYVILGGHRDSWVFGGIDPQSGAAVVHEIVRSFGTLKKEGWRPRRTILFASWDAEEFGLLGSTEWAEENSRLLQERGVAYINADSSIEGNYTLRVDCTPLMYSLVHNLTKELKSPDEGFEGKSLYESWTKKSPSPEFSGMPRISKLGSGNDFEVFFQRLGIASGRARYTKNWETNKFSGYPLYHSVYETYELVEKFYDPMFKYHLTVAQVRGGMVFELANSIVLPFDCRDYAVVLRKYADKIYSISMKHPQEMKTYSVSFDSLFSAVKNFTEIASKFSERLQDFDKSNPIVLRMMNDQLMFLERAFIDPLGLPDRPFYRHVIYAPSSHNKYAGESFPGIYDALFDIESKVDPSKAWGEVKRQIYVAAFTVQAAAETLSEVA

One experiment has as its target T1, PSMA (Homo sapiens, UniProt Q04609).
T1 construct: endogenous in cells; host or cells: LNCaP cells
Nature of the experiment: In vitro PSMA competitive binding assay, LNCaP cells, [18F]DCFPyL radioligand. The conditions noted are these: [18F]DCFPyL 0.1 nM, read-out: PSMA binding affinity (Ki). On the procedure:
Inhibition constants (Ki) to PSMA were measured by in vitro competition binding assays using [^18F]DCFPyL as the radioligand. LNCaP cells which were plated onto a 24-well poly-D-lysine coated plate for 48 h (400,000/well). Growth medium was removed and replaced with HEPES buffered saline (50 mM HEPES, pH 7.5, 0.9% sodium chloride). After 1 h, [^18F]DCFPyL (0.1 nM) was added to each well (in triplicate) containing varied concentrations ([…]) of tested compounds The assay mixtures were incubated for 1 h at 37° C. with gentle agitation followed by two washes with cold HEPES buffered saline. A trypsin solution (0.25%, 400 μL) was then added to each well to harvest the cells. Radioactivity was measured by gamma counting and Ki values calculated using the ‘one site—fit Ki’ built-in model in Prism 8 (GraphPad).
Take `COc1ccc(CCCC(=O)NCC(=O)N[C@@H](CCCCNC(=O)CN2CCN(CC(=O)O)CCN(CC(=O)O)CCN(CC(=O)O)CC2)C(=O)NCC(=O)NCC2CCC(C(=O)N[C@@H](Cc3c4ccccc4cc4ccccc34)C(=O)NCCCC[C@H](NC(=O)N[C@@H](CCCC(=O)O)C(=O)O)C(=O)O)CC2)cc1` (stereo partly shown) [CCZ02009] ({Butanoyl(4-(4-MeO-phenyl))}-GK(DOTA)G[X1][Ala(9-anthryl)]-{AadUreaLys(Nε)}): the Ki is 0.12 ± 0.02 nM.

Turning to `COc1ccc(CCCC(=O)NCC(=O)N[C@@H](CCCCNC(=O)CN2CCN(CC(=O)O)CCN(CC(=O)O)CCN(CC(=O)O)CC2)C(=O)NCC2CCC(C(=O)N[C@@H](Cc3c4ccccc4cc4ccccc34)C(=O)NCCCC[C@H](NC(=O)N[C@@H](CCCC(=O)O)C(=O)O)C(=O)O)CC2)cc1` (stereo partly shown) [HTK03170, reference compound], the inhibition constant Ki was 1.53 ± 0.33 nM. As for `O=C(O)CCC[C@H](NC(=O)N[C@@H](CCCCNC(=O)[C@H](Cc1c2ccccc2cc2ccccc12)NC(=O)C1CCC(NC(=O)CNC(=O)C[C@H](CCCCNC(=O)CN2CCN(CC(=O)O)CCN(CC(=O)O)CCN(CC(=O)O)CC2)NC(=O)CNC(=O)CCCc2ccc([N+](=O)[O-])cc2)CC1)C(=O)O)C(=O)O` (stereo partly shown) [CCZ02022], the Ki is 11.2 nM. As for `O=C(O)CN1CCN(CC(=O)O)CCN(CC(=O)NCCCC[C@H](NC(=O)CNC(=O)CCCc2ccc([N+](=O)[O-])cc2)C(=O)NCC(=O)NCC2CCC(C(=O)N[C@@H](Cc3c4ccccc4cc4ccccc34)C(=O)NCCCC[C@H](NC(=O)N[C@@H](C[C@@H](F)C(=O)O)C(=O)O)C(=O)O)CC2)CCN(CC(=O)O)CC1` (stereo partly shown) [CCZ02025] ({Butanoyl(4-(4-NO2Ph))}-GK(DOTA)G[X1][Ala(9-anthryl)]-X4), the Ki was found to be 0.59 nM.

In the case of `COc1ccc(CCCC(=O)NCC(=O)N[C@@H](CCCCNC(=O)COCCOCCNC(=O)CN2CCN(CC(N)=O)CCN(CC(=O)O)CCN(CC(=O)O)CC2)C(=O)NCC2CCC(C(=O)N[C@@H](Cc3c4ccccc4cc4ccccc34)C(=O)NCCCC[C@H](NC(=O)N[C@@H](CCCC(=O)O)C(=O)O)C(=O)O)CC2)cc1` (stereo partly shown) [CCZ02005], the Ki worked out at 2.08 nM. Same read-out and setting: the value for `O=C(O)CC[C@H](NC(=O)N[C@@H](CCCCNC(=O)[C@H](Cc1c2ccccc2cc2ccccc12)NC(=O)C1CCC(CNC(=O)CNC(=O)[C@H](CCCCNC(=O)CN2CCN(CC(=O)O)CCN(CC(=O)O)CCN(CC(=O)O)CC2)NC(=O)CNC(=O)CCCc2ccc([N+](=O)[O-])cc2)CC1)C(=O)O)C(=O)O` (stereo partly shown) [CCZ02024] ({Butanoyl(4-(4-NO2Ph))}-GK(DOTA)G[X1][Ala(9-anthryl)]-EuK) was 1.54 nM. Take `O=C(O)CCC[C@H](NC(=O)N[C@@H](CCCCNC(=O)[C@H](Cc1c2ccccc2cc2ccccc12)NC(=O)C1CCC(CNC(=O)CNC(=O)[C@H](CCCCNC(=O)CN2CCOCCN(CC(=O)O)CCN(CC(=O)O)CCOCCN(CC(=O)O)CC2)NC(=O)CNC(=O)CCCc2ccc([N+](=O)[O-])cc2)CC1)C(=O)O)C(=O)O` (stereo partly shown) [CCZ02034]: the Ki stood at 2.82 nM. On to `COc1ccc(CCCC(=O)NCC(=O)N[C@@H](CCCCNC(=O)CN2CCN(CC(=O)O)CCN(CC(=O)O)CCN(CC(=O)O)CC2)C(=O)NCC(=O)NCC2CCC(C(=O)N[C@@H](Cc3c4ccccc4cc4ccccc34)C(=O)NCCCC[C@H](NC(=O)N[C@@H](C[C@@H](F)C(=O)O)C(=O)O)C(=O)O)CC2)cc1` (stereo partly shown) [CCZ02008] ({Butanoyl(4-(4-MeO-phenyl))}-GK(DOTA)G[X1][Ala(9-anthryl)]-X4), for which the inhibitory constant (Ki) was found to be 0.48 ± 0.1 nM. The same measure, in the same setting: under `O=C(O)CCC[C@H](NC(=O)N[C@@H](CCCCNC(=O)[C@H](Cc1c2ccccc2cc2ccccc12)NC(=O)C1CCC(NC(=O)CN2CCN(CC(=O)O)CCN(CC(=O)O)CCN(CC(=O)O)CC2)CC1)C(=O)O)C(=O)O` (stereo partly shown) [CCZ02013] stands 1.53 ± 0.21 nM; under `COc1ccc(CCCC(=O)NCC(=O)N[C@@H](CCCCNC(=O)CN2CCN(CC(=O)O)CCN(CC(=O)O)CCN(CC(=O)O)CC2)C(=O)NCC(=O)NCC(=O)NCC2CCC(C(=O)N[C@@H](Cc3c4ccccc4cc4ccccc34)C(=O)NCCCC[C@H](NC(=O)N[C@@H](CCCC(=O)O)C(=O)O)C(=O)O)CC2)cc1` (stereo partly shown) [CCZ02060] ({Butanoyl(4-(4-MeO-phenyl))}-GK(DOTA)GG[X1][Ala(9-anthryl)]-{AadUreaLys(Nε)}), 1.09 ± 0.19 nM. Turning to `COc1ccc(CCCC(=O)NCC(=O)N[C@@H](CCCCNC(=O)CN2CCN(CC(=O)O)CCN(CC(=O)O)CCN(CC(=O)O)CC2)C(=O)NCC(=O)NCC(=O)NCC(=O)NCC(=O)NCC2CCC(C(=O)N[C@@H](Cc3c4ccccc4cc4ccccc34)C(=O)NCCCC[C@H](NC(=O)N[C@@H](CCCC(=O)O)C(=O)O)C(=O)O)CC2)cc1` (stereo partly shown) [CCZ02059] ({Butanoyl(4-(4-MeO-phenyl))}-GK(DOTA)GGGG[X1][Ala(9-anthryl)]-{AadUreaLys(Nε)}), the Ki is 10.8 ± 3.28 nM.

The target of a further experiment is T2, Human serum albumin (Homo sapiens, UniProt P02768).
T2 construct: purchased Sovicell
T2 sequence (P02768 25-609): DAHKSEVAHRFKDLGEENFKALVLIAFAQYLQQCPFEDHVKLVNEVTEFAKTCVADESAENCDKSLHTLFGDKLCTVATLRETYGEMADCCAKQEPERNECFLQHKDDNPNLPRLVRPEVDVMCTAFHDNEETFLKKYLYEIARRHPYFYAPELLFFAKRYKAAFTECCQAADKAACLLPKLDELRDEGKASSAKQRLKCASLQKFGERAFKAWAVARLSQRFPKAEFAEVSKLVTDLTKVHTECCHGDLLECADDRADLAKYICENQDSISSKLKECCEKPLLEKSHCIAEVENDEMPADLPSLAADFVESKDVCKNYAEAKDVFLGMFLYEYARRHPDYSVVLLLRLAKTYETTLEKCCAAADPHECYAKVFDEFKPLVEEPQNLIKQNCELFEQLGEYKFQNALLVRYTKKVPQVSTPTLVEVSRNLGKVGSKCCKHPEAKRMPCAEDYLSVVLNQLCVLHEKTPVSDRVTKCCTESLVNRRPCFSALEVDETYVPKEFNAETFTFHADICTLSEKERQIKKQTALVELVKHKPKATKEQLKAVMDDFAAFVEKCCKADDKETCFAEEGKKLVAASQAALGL
The experiment can be described thus: Human serum albumin binding assay (Transil HSA binding kit). Particulars: read-out: Human albumin binding affinity (Kd). On the procedure:
Human serum albumin binding assay was performed using Transil HSA binding kit (Sovicell) according to manufacturer's recommended procedures.
On to `COc1ccc(CCCC(=O)NCC(=O)N[C@@H](CCCCNC(=O)CN2CCN(CC(=O)O)CCN(CC(=O)O)CCN(CC(=O)O)CC2)C(=O)NCC(=O)NCC2CCC(C(=O)N[C@@H](Cc3c4ccccc4cc4ccccc34)C(=O)NCCCC[C@H](NC(=O)N[C@@H](CCCC(=O)O)C(=O)O)C(=O)O)CC2)cc1` (stereo partly shown) [CCZ02009] ({Butanoyl(4-(4-MeO-phenyl))}-GK(DOTA)G[X1][Ala(9-anthryl)]-{AadUreaLys(Nε)}), for which the Kd is 64900 ± 2200 nM. `COc1ccc(CCCC(=O)NCC(=O)N[C@@H](CCCCNC(=O)CN2CCN(CC(=O)O)CCN(CC(=O)O)CCN(CC(=O)O)CC2)C(=O)NCC2CCC(C(=O)N[C@@H](Cc3c4ccccc4cc4ccccc34)C(=O)NCCCC[C@H](NC(=O)N[C@@H](CCCC(=O)O)C(=O)O)C(=O)O)CC2)cc1` (stereo partly shown) [HTK03170, reference compound]: the Kd was 70100 ± 3200 nM.

A word on the Ki: it is a dissociation constant, usually derived from enzyme kinetics or from competition with a known ligand. A word on the Kd: it is a measure of binding affinity in units of concentration.
